Reference: patent publication US7608726B2, “Substituted indolepyridinium as anti-infective compounds” (Tibotec Pharmaceuticals Ltd., priority 2002, dated 2009)

Assays:
[1] = Microsomal metabolization, human liver microsomes; type: in vitro ADME; conditions: liver microsomal fractions
Protocol: Aliquots of human liver microsomal fractions (prepared by centrifugation at 12000 g^−1) were transferred into 10 ml glass tubes that are immersed in ice. Subsequently, test compound was added to yield a final concentration of 10 μM test compound. After adding 500 μl of a co-factor solution (cofactor solution: 1 mg/ml glucose-6-phosphate, 1 mg/ml MgCl2.6H2O, 0.5 units/ml glucose-6-phosphate dehydrogenase in 0.5 M phohsphate buffer. pH 7.4), homogenisation buffer (homogenisation buffer: 1,15% KCl in 0.05 M phosphate buffer, pH 7.4) was added to give a final volume of 1 ml. The incubations, 30 or 120 minutes at 37° C., were initiated by adding 10 μl of a solution of nicontinamide adenine dinucleotide phosphate (1.25 mg/ml) in homogenisation buffer. After a preincubation during 5 minutes at 37° C., the tubes were continuously shaken at 100 oscillations/minute in a water bath. The reactions were terminated by addition of an equal volume of DMSO. Blank incubations containing boiled microsomal fractions were incubated under the same conditions as the drug incubations. The degree of metabolism was determined by direct measurement of the residual parent compound in the reaction mixture using LC-MS. In parallel, the residual anti-HIV activity in the reaction mixture was detected using a colorimetric anti-HIV assay as described in Pauwels et al. J. Virol. Methods 1988 (20) 309-321. The residual activity is defined as the percent difference in EC50 between the drug incubations and the blank incubations.
The amount of compound was determined using LC-MS at the time points indicated between brackets. The results are indicated as a % vis-à-vis the amount determined at the start of the experiment (time=0; normalized to 100%).

[2] = tested on: wild type HIV-LAI strain; assay: Antiviral cellular assay (MT4 cells, MTT), wild type HIV-1 strain LAI; type: cell-based; conditions: Human immunodeficiency virus 1, MT4; read-out: EC50, inhibition of wild-type HIV-LAI strain
Protocol: The compounds of the present invention were examined for anti-viral activity in a cellular assay. […] The cellular assay was performed according to the following procedure.
HIV- or mock-infected MT4 cells were incubated for five days in the presence of various concentrations of the inhibitor. At the end of the incubation period, the replicating virus in the control cultures has killed all HIV-infected cells in the absence of any inhibitor. Cell viability was determined by measuring the concentration of MTT, a yellow, water soluble tetrazolium dye that is converted to a purple, water insoluble formazan in the mitochondria of living cells only. Upon solubilization of the resulting formazan crystals with isopropanol, the absorbance of the solution was monitored at 540 nm. The values correlate directly to the number of living cells remaining in the culture at the completion of the five day incubation. The inhibitory activity of the compound was monitored on the virus-infected cells and was expressed as EC50 and EC90. These values represent the amount of the compound required to protect 50% and 90%, respectively, of the cells from the cytopathogenic effect of the virus. The toxicity of the compound was measured on the mock-infected cells and was expressed as CC50, which represents the concentration of compound required to inhibit the growth of the cells by 50%. The selectivity index (SI) (ratio CC50/EC50) is an indication of the selectivity of the anti-HIV activity of the inhibitor. Wherever results are reported as e.g. pEC50 or pCC50 values, the result is expressed as the negative logarithm of the result expressed as EC50 or CC50 respectively.
As a measure of the broad spectrum activity of the present compounds, the EC50 was determined. […] The fold resistance rounded to the nearest integer is mentioned between brackets.
Row WT: pEC50 against wild type HIV-LAI strain. The toxicity (Tox) is expressed as the pCC50 value as determined with mock transfected cells. ND means not determined.

In the case of N#Cc1cc2c(c3ccccc3n2CCN2CCCC2)n(-c2ccc([N+](=O)[O-])cc2)c1=O [Compound 13, 1-(4-Nitro-phenyl)-2-oxo-5-(2-pyrrolidin-1-yl-ethyl)-2,5-dihydro-1H-pyrido[3,2-b]-indole-3-carbonitrile], the “hepatic first pass metabolization (microsomal)” value [1] is reported as “little or no hepatic first pass metabolization” and the EC50 [2] is reported as < 1000 nM.
